In patent US12441768B2, “Compositions and methods for treating endometriosis” (EndoMet Biosciences, Inc., priority 2018, dated 2025):
Where a SMILES comes first, the peptide text is derived from it. [ ]: non-standard residue; d: D form. The star is where a group is joined. ξ: configuration not given here. ξIle = CC[C@H](C)C(N)C(=O)O; Piv = CC(C)(C)C(=O)*

What was measured:
[1] = target: Wnt-responsive promoter (TCF/LEF); assay: Wnt-dependent luciferase reporter assay; format: cell-based, murine
Outline: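 Murine 3T3 fibroblasts carrying a TCF/LEF-driven luciferase reporter, stimulated with Wnt3a in the presence of increasing peptide concentrations or vehicle. Luminescence inhibition gave EC50 values in uM.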

β-catenin = target: T1, β-catenin (Homo sapiens, UniProt P35222); assay: KD50 measurement using competitive fluorescence polarization (FP) with labelled TCF4; format: binding; details: fluorescence polarization, β-catenin; for Kd: read-out: β-Cat FP KD
T1 sequence (P35222 1-781): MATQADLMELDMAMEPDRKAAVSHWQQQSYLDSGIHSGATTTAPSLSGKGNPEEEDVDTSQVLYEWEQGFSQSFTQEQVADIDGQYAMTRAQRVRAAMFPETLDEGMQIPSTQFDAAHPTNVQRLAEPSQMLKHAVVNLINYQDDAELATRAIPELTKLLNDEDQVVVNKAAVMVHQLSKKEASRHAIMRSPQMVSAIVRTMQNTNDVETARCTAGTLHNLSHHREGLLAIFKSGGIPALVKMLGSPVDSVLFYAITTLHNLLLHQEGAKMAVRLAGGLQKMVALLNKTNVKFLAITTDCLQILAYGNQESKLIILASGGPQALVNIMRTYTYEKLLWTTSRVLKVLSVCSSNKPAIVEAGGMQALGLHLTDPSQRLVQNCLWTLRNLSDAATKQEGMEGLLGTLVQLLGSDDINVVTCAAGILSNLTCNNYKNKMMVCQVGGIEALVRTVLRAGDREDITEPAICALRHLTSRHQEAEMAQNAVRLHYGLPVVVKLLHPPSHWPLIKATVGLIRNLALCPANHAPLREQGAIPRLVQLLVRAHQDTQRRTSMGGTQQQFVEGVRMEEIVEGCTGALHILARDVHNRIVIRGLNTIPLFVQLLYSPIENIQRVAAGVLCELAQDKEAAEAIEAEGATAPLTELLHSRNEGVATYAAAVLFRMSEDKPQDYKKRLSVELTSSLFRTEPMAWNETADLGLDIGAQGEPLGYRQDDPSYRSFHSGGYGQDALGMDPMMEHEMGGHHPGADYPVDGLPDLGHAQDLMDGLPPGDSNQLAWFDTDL
Outline: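 First, β-catenin at 100 nM is mixed with 5 nM labelled TCF4 at room temperature. Next, compound is added across serial dilutions (10 nM to 30 uM). Finally, fluorescence polarization is measured (ex 470 nm, em 520 nm); experiments are done three times.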

in vitro = details: % Viability non-Wnt responsive cells

Row | EC50 [1] [µM] | Kd (β-catenin) [µM] | β-Cat FP Hill slope (β-catenin) | Compound | viability (in vitro) [%]
1 | > 30 | > 30 | – | CC[C@H](C)[C@@H]1NC(=O)[C@H](CO)NC(=O)[C@H](CCC(N)=O)NC(=O)[C@H](C)N(C)C(=O)[C@H](Cc2c[nH]c3ccccc23)NC(=O)[C@@H](N)CCCCNC(=O)CNC(=O)[C@H](Cc2c[nH]c3ccccc23)NC(=O)[C@H](C(C)C)NC(=O)[C@H](CCCNC(=N)N)NC(=O)[C@H](CCC(N)=O)NC(=O)[C@H](C(C)C)NC(=O)[C@H](Cc2c[nH]cn2)NC(=O)[C@H](CCC(N)=O)NC(=O)[C@H](CC(N)=O)NC(=O)[C@H](CC(C)C)NC1=O [compound 20] (HELM PEPTIDE1{K.W.[meA].Q.S.I.L.N.Q.H.V.Q.R.V.W.G}$PEPTIDE1,PEPTIDE1,1:R3-16:R2$$$V2.0; bridges inferred) | 106
2 | < 7.5 | 0.4 to 1 | 1.92 | CC[C@@H](C)[C@H]1NC(=O)[C@@H](CC(C)C)NC(=O)[C@@H](Cc2ccccc2)NC(=O)[C@H](Cc2c[nH]c3ccccc23)NC(=O)[C@@H](CCSC)NC(=O)CCCCCCCCCCCNC(=O)C[C@@H](C(=O)O)NC(=O)[C@H](Cc2c[nH]c3ccccc23)NC(=O)[C@@H](Cc2ccccc2)NC(=O)[C@H](CS)NC1=O [compound 190] (HELM PEPTIDE1{[O=C(CCCCCCCCCCCN[*:1])[*:2]].[dM].W.[dF].[dL].[dI].C.[dF].W.D}$PEPTIDE1,PEPTIDE1,1:R1-10:R3$$$V2.0) | 99.6
3 | > 30 | < 0.4 | 0.71 | CC[C@H](C)[C@H](NC(=O)[C@H](CO)NC(=O)[C@H](CCC(=O)O)NC(=O)[C@H](Cc1c[nH]c2ccccc12)NC(=O)[C@@H](N)CCSC)C(=O)N[C@@H](CC(C)C)C(=O)N[C@@H](CC(=O)O)C(=O)N[C@@H](CCC(=O)O)C(=O)N[C@@H](Cc1c[nH]cn1)C(=O)N[C@@H](CCSC)C(=O)N[C@@H](CCC(N)=O)C(=O)N[C@@H](CCCNC(=N)N)C(=O)N[C@H](C(=O)N[C@@H](Cc1c[nH]c2ccccc12)C(=O)N[C@@H](CCCNC(=N)N)C(=O)NCC(=O)O)C(C)C [compound 23] (H-MWESILDEHMQRVWRG-OH) | 98.9
4 | > 30 | > 30 | – | CC[C@H](C)[C@@H]1NC(=O)[C@H](CO)NC(=O)[C@H](CCC(=O)O)NC(=O)[C@H](C)N(C)C(=O)[C@@H](N)CCCCNC(=O)CNC(=O)[C@H](Cc2c[nH]c3ccccc23)NC(=O)[C@H](C(C)C)NC(=O)[C@H](CCCNC(=N)N)NC(=O)[C@H](CCC(N)=O)NC(=O)[C@H](C(C)C)NC(=O)[C@H](Cc2c[nH]cn2)NC(=O)[C@H](CCC(=O)O)NC(=O)[C@H](CC(=O)O)NC(=O)[C@H](CC(C)C)NC1=O [compound 18] (HELM PEPTIDE1{K.[meA].E.S.I.L.D.E.H.V.Q.R.V.W.G}$PEPTIDE1,PEPTIDE1,1:R3-15:R2$$$V2.0; bridges inferred) | 90.2
5 | 15 to 22.5 | > 30 | – | CC[C@H](C)[C@H](NC(=O)[C@H](CC(C)C)NC(=O)[C@H](Cc1ccccc1)NC(=O)[C@H](Cc1c[nH]c2ccccc12)NC(=O)[C@H](CCSC)NC(=O)[C@H](CCCNC(=N)N)NC(=O)[C@H](CO)NC(=O)[C@@H](N)CCSC)C(=O)N[C@@H](CO)C(=O)N[C@@H](Cc1ccccc1)C(=O)N[C@@H](Cc1c[nH]c2ccccc12)C(=O)N(C)[C@@H](C)C(=O)NCC(=O)O [compound 16] (HELM PEPTIDE1{M.S.R.M.W.F.L.I.S.F.W.[meA].G}$$$$V2.0) | 92
6 | 7.5 to 15 | 0.4 to 1 | 0.7 | CC[C@H](C)[C@H](NC(=O)[C@H](CC(C)C)NC(=O)[C@H](Cc1ccccc1)NC(=O)[C@H](Cc1c[nH]c2ccccc12)NC(=O)[C@@H](N)CCSC)C(=O)N[C@@H](CS)C(=O)N[C@@H](Cc1ccccn1)C(=O)N[C@@H](Cc1c[nH]c2ccccc12)C(=O)NCC(=O)O [compound 148] (HELM PEPTIDE1{M.W.F.L.I.C.[O=C([C@H](Cc1ccccn1)N[*:1])[*:2]].W.G}$$$$V2.0) | 95.5
7 | > 30 | < 0.4 | 1 | CC[C@H](C)[C@@H]1NC(=O)[C@H](CC(C)C)NC(=O)[C@H](Cc2ccccc2)NC(=O)[C@H](Cc2c[nH]c3ccccc23)NC(=O)[C@H](CCSC)NC(=O)[C@H](CCCNC(=N)N)NC(=O)[C@H](CO)NC(=O)[C@H](CCSC)NC(=O)[C@@H](N)CCCCNC(=O)CNC(=O)[C@H](CCCNC(=N)N)NC(=O)[C@H](Cc2c[nH]c3ccccc23)NC(=O)[C@H](Cc2ccccc2)NC(=O)[C@H](CO)NC1=O [compound 24] (HELM PEPTIDE1{K.M.S.R.M.W.F.L.I.S.F.W.R.G}$PEPTIDE1,PEPTIDE1,1:R3-14:R2$$$V2.0; bridges inferred) | 96.8
8 | > 30 | 1 to 10 | 0.7 | CC[C@H](C)[C@@H]1NC(=O)[C@H](CO)NC(=O)[C@H](CCC(=O)O)NC(=O)[C@H](C)N(C)C(=O)[C@H](CCSC)NC(=O)[C@@H](N)CCCCNC(=O)CNC(=O)[C@H](Cc2c[nH]c3ccccc23)NC(=O)[C@H](C(C)C)NC(=O)[C@H](CCCNC(=N)N)NC(=O)[C@H](CCC(N)=O)NC(=O)[C@H](C(C)C)NC(=O)[C@H](Cc2c[nH]cn2)NC(=O)[C@H](CCC(=O)O)NC(=O)[C@H](CC(=O)O)NC(=O)[C@H](CC(C)C)NC1=O [compound 30] (HELM PEPTIDE1{K.M.[meA].E.S.I.L.D.E.H.V.Q.R.V.W.G}$PEPTIDE1,PEPTIDE1,1:R3-16:R2$$$V2.0; bridges inferred) | 106
9 | < 7.5 | < 0.4 | 1.04 | CC[C@H](C)C(NC(=O)[C@H](CC(C)C)NC(=O)C(NC(=O)[C@H](Cc1c[nH]c2ccccc12)NC(=O)[C@H](CCSC)NC(=O)C(C)(C)C)[C@@H](C)CC)C(=O)N[C@@H](CO)C(=O)N[C@@H](Cc1ccccc1)C(=O)N[C@@H](Cc1c[nH]c2ccccc12)C(=O)NCC(=O)O (stereo partly shown) [compound 224] (Piv-MW[ξIle]L[ξIle]SFWG-OH) | 95.7
10 | < 7.5 | – | – | CC[C@H](C)[C@H](NC(=O)[C@H](CC(C)C)NC(=O)[C@H](Cc1ccccc1)NC(=O)[C@H](Cc1c[nH]c2ccccc12)NC(=O)[C@H](CCSC)NC(=O)[C@H](CCCNC(=N)N)NC(=O)[C@@H](NC(=O)[C@@H](N)CCSC)[C@@H](C)CC)C(=O)N[C@@H](CO)C(=O)N[C@@H](Cc1ccccc1)C(=O)N[C@@H](Cc1c[nH]c2ccccc12)C(=O)NCC(=O)O [compound 15] (H-MIRMWFLISFWG-OH) | 103
11 | > 30 | – | – | CC[C@H](C)[C@H](NC(=O)[C@H](CO)NC(=O)[C@H](CCC(=O)O)NC(=O)[C@H](Cc1c[nH]c2ccccc12)NC(=O)[C@@H](N)CCSC)C(=O)N[C@@H](CC(C)C)C(=O)N[C@@H](CC(=O)O)C(=O)N[C@@H](CCC(=O)O)C(=O)N[C@@H](Cc1c[nH]cn1)C(=O)N[C@H](C(=O)N[C@@H](CCC(N)=O)C(=O)N[C@@H](CCCNC(=N)N)C(=O)N[C@H](C(=O)N[C@@H](Cc1c[nH]c2ccccc12)C(=O)NCC(=O)O)C(C)C)C(C)C [compound 22] (H-MWESILDEHVQRVWG-OH) | 99.6
